The values that follow come from ChEMBL document CHEMBL1926671, “3D-Quantitative structure-activity relationship and docking studies of the tachykinin NK3 receptor” (Bioorg Med Chem Lett, 2011).

Structures are written as SMILES.

For the test, the target named is T1, Neuromedin-K receptor (Homo sapiens, UniProt P29371).
T1 sequence (P29371 whole entry): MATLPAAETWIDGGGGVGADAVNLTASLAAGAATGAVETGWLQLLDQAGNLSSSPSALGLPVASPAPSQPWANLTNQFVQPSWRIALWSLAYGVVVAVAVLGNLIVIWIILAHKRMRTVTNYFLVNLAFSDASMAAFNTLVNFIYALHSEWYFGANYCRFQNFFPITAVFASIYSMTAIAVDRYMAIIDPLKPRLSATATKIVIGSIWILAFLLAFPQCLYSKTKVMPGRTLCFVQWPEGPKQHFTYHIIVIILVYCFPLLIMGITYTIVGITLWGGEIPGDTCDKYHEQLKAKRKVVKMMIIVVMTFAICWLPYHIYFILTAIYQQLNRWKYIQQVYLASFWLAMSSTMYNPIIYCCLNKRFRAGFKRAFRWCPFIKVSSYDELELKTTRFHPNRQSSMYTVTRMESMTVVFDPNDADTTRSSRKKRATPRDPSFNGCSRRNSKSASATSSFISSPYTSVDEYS
As to the kind of experiment: Binding affinity to human NK3 receptor expressed in CHO cells. In kind it is cell-based.

`CCCCC(NC(=O)c1cc(-c2ccccc2)nc2ccccc12)c1ccccc1` (stereo unspecified) showed a Ki of 158 nM.
